Among the test systems are T-47D breast; UO-31 renal; A498 renal; HCT-15 colon; SF-539 CNS; SNB-75 CNS; MOLT-4 leukemia; CCRF-CEM leukemia; SNB-19 CNS; UACC-257 melanoma.
Test in all cases: NCI anticancer screen, dose series, 48 h

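Compound exposure: 48 hours, 5 concentrations, 96-well plates. GI50 = concentration required for 50% inhibition of growth. The concentration for full growth arrest is given as TGI.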

Regarding `COC(c1ccc(C(C)(C)C)cc1)(c1ccc(C(C)(C)C)cc1)c1ccc(C(C)(C)C)cc1`, the TGI with T-47D breast, in the assay on UO-31 renal, in the assay with A498 renal, with HCT-15 colon, in the assay with SF-539 CNS and with SNB-75 CNS was more than 100 µM in each case. Also, the TGI with MOLT-4 leukemia, with CCRF-CEM leukemia and in the assay with SNB-19 CNS was more than 100 µM each time.

Turning to `COc1cc2c(/C=N\N=C(N)N)c[nH]c2cc1C`, the GI50 was 11.7 µM with T-47D breast; more than 100 µM with UO-31 renal; 27.3 µM in the assay with A498 renal; 36.8 µM in the assay on UACC-257 melanoma; 35.8 µM with HCT-15 colon; 14.2 µM in the assay on MOLT-4 leukemia. Moreover, the figures for the GI50 with CCRF-CEM leukemia and in the assay with SNB-19 CNS were 14.6 µM and 19.2 µM, respectively. In addition, the TGI with T-47D breast is 27.9 µM; with UO-31 renal, more than 100 µM; in the assay on A498 renal, 73.9 µM; in the assay with UACC-257 melanoma, more than 100 µM; with HCT-15 colon it was more than 100 µM; in the assay with MOLT-4 leukemia, 27.2 µM. Also, the TGI with CCRF-CEM leukemia is 27.7 µM; in the assay with SNB-19 CNS it was 54.5 µM.

`COC(=O)c1cc2c(o1)-c1nccc3c1c(nc1ccccc13)C2=O`: the GI50 is 1.88 µM in the assay on T-47D breast; 5.49 µM with UO-31 renal; 18 µM in the assay with A498 renal; 3.68 µM in the assay with UACC-257 melanoma; 1.57 µM with HCT-15 colon; 2.69 µM with SF-539 CNS. The GI50 in the assay on MOLT-4 leukemia is 2.64 µM; with CCRF-CEM leukemia it was 3.79 µM; with SNB-19 CNS it was 2.28 µM. Moreover, the TGI in the assay on T-47D breast is 6.9 µM; in the assay with UO-31 renal, 24.3 µM; with A498 renal, 39.1 µM; in the assay on UACC-257 melanoma, 15.3 µM; in the assay on HCT-15 colon, 11.1 µM; in the assay on SF-539 CNS, 9.7 µM. Further, the TGI worked out at 7.28 µM in the assay with MOLT-4 leukemia, 15.5 µM in the assay with CCRF-CEM leukemia and 6.94 µM in the assay on SNB-19 CNS.

Regarding `CCC(C)(O)c1cnc(CC(C)C)c(=O)n1O` (configuration not stated), the TGI in the assay on T-47D breast, with UO-31 renal, in the assay with A498 renal, with UACC-257 melanoma, in the assay on HCT-15 colon and with SNB-75 CNS was more than 100 µM throughout. Moreover, the TGI in the assay on MOLT-4 leukemia is 48.6 µM; with CCRF-CEM leukemia it was 54.1 µM; in the assay with SNB-19 CNS, more than 100 µM.

Consider `COc1cc2c(cc1O)CCN[C@]21CS[C@@H]2c3c(OC(C)=O)c(C)c4c(c3[C@H](COC1=O)N1[C@@H]2[C@H]2c3c(cc(C)c(OC)c3O)C[C@@H]([C@@H]1O)N2C)OCO4`, for which the TGI in the assay on T-47D breast is 3.02 µM; in the assay with UACC-257 melanoma, 0.00557 µM; in the assay on HCT-15 colon, 0.361 µM; in the assay on MOLT-4 leukemia, 8.76 µM; with CCRF-CEM leukemia it was 3.11 µM; in the assay with SNB-19 CNS, 1.39 µM. Besides, the GI50 in the assay with HCT-15 colon was 0.00379 µM.

Turning to `N#CCCN1C/C(=C/c2ccc(Br)cc2)C(=O)/C(=C/c2ccc(Br)cc2)C1`, the GI50 in the assay on T-47D breast is 4.36 µM; with UO-31 renal, 1.47 µM; in the assay with UACC-257 melanoma, 2.09 µM; in the assay on HCT-15 colon, 1.07 µM; in the assay on SF-539 CNS, 1.61 µM; in the assay with SNB-75 CNS, 4.35 µM. Moreover, the GI50 was 2.85 µM in the assay with MOLT-4 leukemia, 0.341 µM in the assay on CCRF-CEM leukemia and 1.59 µM with SNB-19 CNS. Moreover, the TGI with T-47D breast came out at 28.2 µM; in the assay with UO-31 renal it was 2.92 µM; in the assay with UACC-257 melanoma, 5.32 µM; in the assay on HCT-15 colon, 2.9 µM; in the assay on SF-539 CNS it was 2.99 µM; in the assay with SNB-75 CNS it was 31.4 µM. Besides, the TGI in the assay with MOLT-4 leukemia is more than 100 µM; with CCRF-CEM leukemia it was more than 100 µM; with SNB-19 CNS, 3.76 µM.

On to `CN(C)CCNCCN`, for which the TGI in the assay on T-47D breast, in the assay with UO-31 renal, with A498 renal, with UACC-257 melanoma, in the assay with HCT-15 colon and in the assay with SF-539 CNS was more than 100 µM each time. Moreover, the TGI in the assay on MOLT-4 leukemia and in the assay on SNB-19 CNS was more than 100 µM each time.

Turning to `O=C(Nc1cc(Cl)ccc1O)c1ccc(Nc2ccnc(C(F)(F)F)c2)cc1`, the GI50 is 1.76 µM in the assay on T-47D breast; 1.93 µM with UO-31 renal; 2.39 µM with A498 renal; 3.53 µM with UACC-257 melanoma; 2.86 µM in the assay with HCT-15 colon; 3.29 µM with SF-539 CNS. Besides, the GI50 with MOLT-4 leukemia is 1.75 µM; with CCRF-CEM leukemia, 0.807 µM; in the assay with SNB-19 CNS, 2.15 µM. Besides, the TGI was 6.39 µM with T-47D breast; 6.13 µM with UO-31 renal; 7.17 µM in the assay with A498 renal; more than 100 µM in the assay with UACC-257 melanoma; more than 100 µM with HCT-15 colon; more than 100 µM in the assay on SF-539 CNS. The TGI in the assay on MOLT-4 leukemia worked out at 6.6 µM; in the assay with CCRF-CEM leukemia, 5.7 µM; with SNB-19 CNS, 7.78 µM.

As to `O=C1c2ccccc2-c2c1c1ccccc1c(=O)n2CCN1CCNCC1`, the GI50 was 2.4 µM in the assay with T-47D breast; 2.24 µM with UO-31 renal; 4.98 µM in the assay on UACC-257 melanoma; 0.935 µM in the assay on HCT-15 colon; 6.26 µM in the assay on SNB-75 CNS; 0.253 µM in the assay on MOLT-4 leukemia. The GI50 in the assay with CCRF-CEM leukemia was 0.671 µM; with SNB-19 CNS, 1.32 µM. The TGI in the assay with T-47D breast was found to be 16.2 µM; in the assay on UO-31 renal, 13 µM; in the assay with UACC-257 melanoma, 16.9 µM; in the assay on HCT-15 colon, 11.3 µM; with SNB-75 CNS it was 23.2 µM; with MOLT-4 leukemia, 0.688 µM. In addition, the figures for the TGI in the assay on CCRF-CEM leukemia and in the assay with SNB-19 CNS were 4.26 µM and 4.9 µM, respectively.

Take `CCc1ccc2c(c1)C(=O)c1c-2n(CCCN=[N+]=[N-])c(=O)c2cc([N+](=O)[O-])ccc12`: the GI50 in the assay with T-47D breast, in the assay with UO-31 renal, in the assay on A498 renal, with UACC-257 melanoma, in the assay on HCT-15 colon and in the assay with SF-539 CNS was more than 50 µM each time. The GI50 with SNB-75 CNS is 25.5 µM; in the assay on CCRF-CEM leukemia, more than 50 µM; with SNB-19 CNS it was more than 50 µM. The TGI in the assay with T-47D breast, in the assay on UO-31 renal, with A498 renal, in the assay with UACC-257 melanoma, with HCT-15 colon and with SF-539 CNS was more than 50 µM throughout. In addition, the TGI in the assay on SNB-75 CNS, in the assay on CCRF-CEM leukemia and with SNB-19 CNS was more than 50 µM each time.
